According to PubChem BioAssay (NCI):
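These data come from cells grown in 96-well plates and exposed to compound for 48 hours at five concentrations. At the TGI there is no net growth.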

Experiments:
Experiment in all cases: growth of human tumour cells (NCI), 48 h
KM12 colon = system: KM12 colon
NCI-H460 lung = system: NCI-H460 lung
UO-31 renal = system: UO-31 renal
SK-OV-3 ovarian = system: SK-OV-3 ovarian
786-0 renal = system: 786-0 renal
SF-295 CNS = system: SF-295 CNS
UACC-257 melanoma = system: UACC-257 melanoma
SK-MEL-2 melanoma = system: SK-MEL-2 melanoma
MALME-3M melanoma = system: MALME-3M melanoma
A549 NSCLC = system: A549 NSCLC
RXF 393 renal = system: RXF 393 renal
SNB-19 CNS = system: SNB-19 CNS

Row | SMILES | TGI (KM12 colon) [µM] | TGI (NCI-H460 lung) [µM] | TGI (UO-31 renal) [µM] | TGI (SK-OV-3 ovarian) [µM] | TGI (786-0 renal) [µM] | TGI (SF-295 CNS) [µM] | TGI (UACC-257 melanoma) [µM] | TGI (SK-MEL-2 melanoma) [µM] | TGI (MALME-3M melanoma) [µM] | TGI (A549 NSCLC) [µM] | TGI (RXF 393 renal) [µM] | TGI (SNB-19 CNS) [µM]
1 | [N-]=[N+]=Nc1c(C=O)c(=O)n(-c2ccccc2)c2ccccc12 | > 100 | > 100 | 31.9 | > 100 | 35 | > 100 | 50.1 | 80.5 | 45.3 | > 100 | 27.2 | > 100
2 | O=C(Nc1c(C(F)(F)F)cc(-c2ccccc2)[nH]c1=O)N1CCOCC1 | > 100 | > 100 | > 100 | > 100 | > 100 | > 100 | > 100 | > 100 | > 100 | > 100 | > 100 | > 100
3 | O=C(Nc1cc2c(=O)oc3ccccc3c2oc1=O)c1cccnc1 | > 100 | > 100 | > 100 | > 100 | > 100 | > 100 | > 100 | > 100 | > 100 | > 100 | > 100 | > 100
4 | CC(C)(C)OC(=O)N(O)CCCn1cnc2c(N)ncnc21 | > 100 | > 100 | > 100 | > 100 | > 100 | > 100 | > 100 | > 100 | > 100 | > 100 | > 100 | > 100
5 | COC(=O)C1c2c(c3ccccc3n2C(=O)OC)CCN2CCC1C(S(=O)(=O)c1ccccc1)C2=O (stereo unspecified) | > 100 | > 100 | > 100 | > 100 | > 100 | > 100 | > 100 | > 100 | > 100 | > 100 | > 100 | > 100
6 | Cc1ccc2c(n1)C(=O)C=CC2=O | 46.2 | 36.2 | 10.4 | 49.5 | 11.4 | 35.7 | 14.6 | 32.3 | 16.8 | 41.2 | 13.6 | 34
7 | CN(CCO)c1nc(N)cc(=O)[nH]1 | > 100 | > 100 | > 100 | > 100 | > 100 | > 100 | > 100 | > 100 | > 100 | > 100 | > 100 | > 100
8 | Brc1c(C#CCC(c2ccccc2)(c2ccccc2)c2ccccc2)ccc(C#CCC(c2ccccc2)(c2ccccc2)c2ccccc2)c1Br | > 100 | > 100 | > 100 | > 100 | > 100 | > 100 | > 100 | > 100 | > 100 | > 100 | > 100 | > 100
9 | O=c1[nH]c2cc([N+](=O)[O-])ccc2nc1/C(=N/Nc1ccccc1)C(O)c1ccc(C(O)/C(=N\Nc2ccccc2)c2cnc3cc([N+](=O)[O-])ccc3n2)cc1 (stereo unspecified) | > 100 | > 100 | > 100 | > 100 | > 100 | > 100 | > 100 | > 100 | > 100 | > 100 | > 100 | > 100
10 | CCOC(=O)C(C(=O)c1ccccc1C(=O)OC)=P(c1ccccc1)(c1ccccc1)c1ccccc1 | > 10 | > 10 | > 10 | > 10 | > 10 | > 10 | > 10 | > 10 | > 10 | > 10 | > 10 | > 10
11 | CN(C)CC1COC2Cc3ccccc3C1O2 (stereo unspecified) | > 100 | > 100 | > 100 | > 100 | > 100 | > 100 | > 100 | > 100 | > 100 | > 100 | > 100 | > 100
12 | CCOc1ccc(NC(=O)/C(=N\NC(C)(C)C)C2C(=O)Nc3ccccc3S2=O)cc1 (stereo unspecified) | > 100 | > 100 | > 100 | > 100 | > 100 | > 100 | > 100 | > 100 | > 100 | > 100 | > 100 | > 100
13 | N#CC(C#N)=C(N)/C(C#N)=C/c1ccc2ccccc2n1 | 41.5 | > 100 | 30.9 | > 100 | 34.2 | 59.6 | > 100 | > 100 | > 100 | > 100 | 42.1 | 77.7
14 | O=C(Cc1csc(-c2nc(CC(=O)NNc3ccccc3)cs2)n1)NNc1ccccc1 | > 100 | 60.4 | > 100 | > 100 | > 100 | > 100 | > 100 | > 100 | > 100 | > 100 | > 100 | > 100
15 | CCN(CC)CCCn1c(=O)c2ccccc2n2c3c(=O)n(C)c(=O)n(C)c3nc12 | 19.8 | 4.06 | 17.7 | 14.7 | 18.6 | 15.6 | 26.2 | 35 | 21.4 | 10.4 | 45.8 | 35.3
16 | N#CC(=C1CCCCC1)c1nc2ccccc2o1 | > 100 | > 100 | > 100 | > 100 | > 100 | > 100 | > 100 | > 100 | > 100 | > 100 | > 100 | > 100
17 | Cc1oc(N)c(S(=O)(=O)c2ccc(Cl)cc2)c1C | > 100 | > 100 | > 100 | > 100 | > 100 | > 100 | > 100 | > 100 | > 100 | > 100 | > 100 | > 100
18 | C/C(=N\Nc1nc2ccccc2n1C)c1cnccn1 | > 33.2 | > 100 | > 100 | > 100 | > 39.2 | > 100 | > 25 | > 100 | > 100 | > 100 | > 100 | > 100
